Measured values: patent publication US20250289810A1, “Compounds As NLRP3 Inflammasome Inhibitors And Their Use As Medicaments” (MAM-AGE S.R.L., priority 2022, published 2025)
Entries after “also recorded” stand apart in the source; their conditions may differ.

How the values were obtained:
[1] = test system: B16-F10 cells; assay: Transwell co-culture of peritoneal macrophages and B16-F10 cells (tumor microenvironment); assay type: cell-based; details: macrophages: LPS 1 μg/mL 2 hours, compound 1 μM 30 minutes, ATP 1 hour; 48 h
Method: (§1) Co-culture of peritoneal macrophages and B16-F10 cells were performed using Transwell chambers with 0.4-μm pores on the membranes (Corning, Corning, NY, USA). Peritoneal macrophages and B16-F10 cells were cultured in the lower and upper compartments of the Transwell chamber, respectively, for 48 h. Peritoneal macrophages were seeded at a density of 2×10^5 cells and treated with LPS (1 μg/mL) for 2 hours, then DMSO or compound 4 (1 μM) of Formula (II) for 30 minutes and finally stimulated with ATP for 1 hour. B16-F10 cells were seeded at a density of 2×10^3 cells each well.
as §1, with “compounds of Formula (III)” for “compound 4”, “μM)” for “μM) of Formula (II)”

[2] = test system: THP-1 cells; assay: RealTime-Glo MT Cell Viability assay on THP-1 cells; assay type: cell-based, human; details: 1 μM, 48 hours
Method: (§2) Cell viability was evaluated on THP-1 cells using realtime-Glo” MT Cell Viability Assay (Promega Italia, MI). Briefly, the cells were seeded in a 96 multiwell (10×10^4 cells/well), treated with the selected compound of Formula (II), and incubated for 48 hours. After treatment, the cells were incubated for 10 minutes in the incubator with the realtime-Glo” reagent following protocol. The luminescence was measured every 12 hours in the Glomax Multi Detection System Promega. The luminescence signal correlates with the number of metabolically active cells.
as §2, with “compound,” for “compound of Formula (II),”, “cells. The results represent the mean luminescence values (RLU)±SEM.” for “cells.”

[3] = biological target: T1, AIM2 inflammasome (Mus musculus, UniProt Q91VJ1); assay: AIM2 inflammasome activation in BMDM transfected with Poly(dA:dT) (IL-1β secretion); assay type: cell-based
T1 construct: non-NLR AIM2 inflammasome by transfecting BMDM with the dsDNS analogue Poly (dA:dT); endogenous in cells; host or cells: mouse BMDM transfected with poly(dA:dT)
T1 sequence (Q91VJ1 1-354): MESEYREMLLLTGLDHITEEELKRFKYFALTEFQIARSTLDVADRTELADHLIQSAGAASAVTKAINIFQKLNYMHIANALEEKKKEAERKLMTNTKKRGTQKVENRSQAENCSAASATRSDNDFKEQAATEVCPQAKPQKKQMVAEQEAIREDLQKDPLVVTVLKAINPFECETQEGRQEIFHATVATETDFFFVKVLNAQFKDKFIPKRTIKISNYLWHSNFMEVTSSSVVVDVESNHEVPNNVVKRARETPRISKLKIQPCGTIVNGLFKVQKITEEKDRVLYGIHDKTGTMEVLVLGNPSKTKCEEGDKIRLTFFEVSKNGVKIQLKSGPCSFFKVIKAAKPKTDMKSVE
Method: (§3) The selectivity of compound 4 as an inhibitor of NLRP3 was then evaluated with respect to NLRC4 and absent in melanoma 2 (AIM2) inflammasomes. For activation of NLRC4 inflammasome, BMDM were treated with LPS (100 ng/ml) for 3 hours. Subsequently, the culture medium was removed and replaced with a serum-free medium containing compound 4 (1 μm for 30 minutes), finally the cells were transfected with flagellin (100 ng/ml) by S. typhimurium for 2 hours. The supernatant was tested by ELISA. […] The effect of the same compounds was examined on the non-NLR AIM2 inflammasome by transfecting BMDM with the dsDNS analogue Poly (dA:dT).

[4] = test system: B16-F10cytLUC melanoma cells; assay: Tumor growth of B16-F10cytLUC melanoma cells inoculated subcutaneously in C57BL/6 mice; assay type: in vivo; details: 25 mg/Kg intraperitoneal thrice weekly
Method: A total of 1×10^6 B16-F10 melanoma cells transfected with cytluc (B16-F10cytLUC) were subcutaneously inoculated into females, 6- to 8-week-old C57BL/6 mice. Tumor growth was monitored daily, and tumor volumes were measured every other day with calipers using the following equation: Volume=π/6×(a×b2), where “a” is the major diameter and “b” is the minor diameter. As soon as the mass was palpable, mice were randomly divided (5 mice per group) into the treatment groups and the control group, with 5 mice per group. For NLRP3 inflammasome inhibition, mice were intraperitoneal injected with selected molecules thrice weekly at 25 mg/Kg; control mice received equal volumes of DMSO.
Luciferase luminescence was followed by a total body luminometer (IVIS Lumina, Caliper-PerkinElmer).

[5] = test system: B16-F10 melanoma cells; assay: B16-F10 cancer cell proliferation (crystal violet growth curve); assay type: cell-based; details: 1 μM, 5 days
Method: B16-F10 cells were treated with selected inhibitors (1 μM) then were counted with a Burker chamber and plated in five sets of 4 wells of a 24-well plate. Starting from the following day (day 1) 1 set of wells (at days 2, 3, 4 and 5) was washed once with PBS, fixed in 4% formaldehyde solution for 15 min at room temperature, and then kept in PBS at 4° C. At day 5, all the wells were stained with crystal violet for 20 minutes, lysed with 10% acetic acid, then the absorbance was read at 595 nm.

[6] = biological target: T2, NLRC4 inflammasome (Mus musculus, UniProt Q3UP24); assay: NLRC4 inflammasome activation in LPS-primed BMDM transfected with flagellin of S. typhimurium (IL-1β ELISA); assay type: cell-based; details: LPS 100 ng/ml 3 hours, compound 1 μm 30 minutes, flagellin 100 ng/ml 2 hours
T2 construct: endogenous in cells; host or cells: mouse BMDM, LPS-primed, transfected with S. typhimurium flagellin
Method: as §3
The selectivity of compounds 6c and 10 of Formula (III) as inhibitors of NLRP3 was then evaluated with respect to NLRC4 inflammasome. For activation of NLRC4 inflammasome, BMDM were treated with LPS (100 ng/ml) for 3 hours. Subsequently the culture medium was removed and replaced with a serum-free medium containing […] (1 μm for 30 minutes), finally the cells were transfected with flagellin (100 ng/ml) by S. typhimurium for 2 hours. The supernatant was tested by ELISA.

[7] = test system: head and neck squamous cell carcinoma; details: head and neck squamous cell carcinoma mouse model; cited from earlier work
[8] = test system: pancreatic adenocarcinoma; details: cited from earlier work
[9] = preclinical studies; cited from earlier work
[10] = clinical development, phase II; cited from earlier work
[11] = test system: chronic myeloid leukemia; details: cited from earlier work

T2 sequence (Q3UP24 whole entry): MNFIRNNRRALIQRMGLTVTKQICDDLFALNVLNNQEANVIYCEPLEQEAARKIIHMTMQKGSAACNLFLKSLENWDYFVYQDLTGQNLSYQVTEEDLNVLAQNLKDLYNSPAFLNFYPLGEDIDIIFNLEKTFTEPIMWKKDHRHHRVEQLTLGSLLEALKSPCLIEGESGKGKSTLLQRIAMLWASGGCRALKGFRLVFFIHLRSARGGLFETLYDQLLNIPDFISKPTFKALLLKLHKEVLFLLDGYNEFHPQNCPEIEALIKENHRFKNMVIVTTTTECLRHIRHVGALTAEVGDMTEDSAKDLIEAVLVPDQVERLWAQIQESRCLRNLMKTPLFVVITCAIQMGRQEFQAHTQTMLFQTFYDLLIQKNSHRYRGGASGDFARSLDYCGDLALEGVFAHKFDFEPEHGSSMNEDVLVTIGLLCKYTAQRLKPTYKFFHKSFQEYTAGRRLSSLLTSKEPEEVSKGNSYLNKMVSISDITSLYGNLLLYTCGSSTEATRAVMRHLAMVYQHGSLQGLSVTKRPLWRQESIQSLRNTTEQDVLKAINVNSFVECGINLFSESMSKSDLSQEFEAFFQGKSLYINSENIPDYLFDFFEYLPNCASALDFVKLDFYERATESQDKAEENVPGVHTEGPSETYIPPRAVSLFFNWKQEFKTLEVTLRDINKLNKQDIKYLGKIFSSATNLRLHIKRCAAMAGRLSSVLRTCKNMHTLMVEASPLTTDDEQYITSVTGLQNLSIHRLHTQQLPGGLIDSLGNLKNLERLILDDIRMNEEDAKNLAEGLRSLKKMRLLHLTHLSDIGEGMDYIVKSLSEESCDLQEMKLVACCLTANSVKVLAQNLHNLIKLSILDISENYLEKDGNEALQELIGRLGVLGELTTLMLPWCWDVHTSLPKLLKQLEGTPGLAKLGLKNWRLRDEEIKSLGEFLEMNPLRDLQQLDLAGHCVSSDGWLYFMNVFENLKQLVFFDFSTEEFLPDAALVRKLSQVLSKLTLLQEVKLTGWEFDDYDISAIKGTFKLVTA

Effect on activation of NLRC4 inflammasome triggered by flagellin S. typhimurium [6]	Compound	Growth of B16-F10 cells co-cultured with treated peritoneal macrophages [1]	Cytotoxicity / cell viability of THP-1 cells [2]	IL-1β secretion on AIM2 inflammasome activation [3]	Reduction of tumor mass vs vehicle (DMSO) [4]	Direct effect on cell proliferation of B16-F10 melanoma cells [5]	Tumor growth [7]	Cell proliferation [8]	Oral bioavailability [9]	Serum liver enzyme levels / hepatotoxicity [10]	Cell proliferation [11]
no effect	Nc1ccc(S(=O)(=O)N2Cc3ccccc3C[C@H]2C(=O)Nc2c3c(cc4c2CCC4)CCC3)cc1 [Compound 4 of Formula (II), (S)-2-((4-aminophenyl)sulfonyl)-N-(1,2,3,5,6,7-hexahydro-s-indacen-4-yl)-1,2,3,4-tetrahydroisoquinoline-3-carboxamide]	treated with the vehicle alone grew more than B16-F10 cells in contact with peritoneal macrophages treated with compound 4	no cytotoxicity	A reduction in the amount of IL-1β secretion was not observe	about 50%	no direct effect					
	CC(C)(O)c1coc(S(=O)(=O)NC(=O)Nc2c3c(cc4c2CCC4)CCC3)c1 [MCC950, N-((1,2,3,5,6,7-hexahydro-s-indacen-4-yl)carbamoyl)-4-(2-hydroxypropan-2-yl)furan-2-sulfonamide]						delay tumor growth	suppress cell proliferation	good oral bioavailability	hepatotoxicity problems; also recorded: elevation of serum liver enzyme levels	suppress cell proliferation
